Assay results from US7767671B2, “3-Quinolinecarbonitrile protein kinase inhibitors” (Wyeth, priority 2004, dated 2010).

Legend:
[1] = molecular target: T1, Raf and/or Mek kinase (human c-Raf, GST-MEK1) (Homo sapiens, UniProt P04049+Q02750); experiment: Raf/Mek kinase cascade assay; type: biochemical; settings: c-Raf dependent activation of GST-MEK and GST-MAPK, phospho-MAPK ELISA; (a)/(b)/(c) = average of two/three/four runs
T1 construct: Sf9 insect cell lysate containing full length 6his-tagged recombinant human c-Raf; 6His; host or cells: Sf9 insect cells (c-Raf, used as lysate); E. coli (MEK1-GST, GST-MAPK)
Procedure, shortened: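 Cascade run with c-Raf (0.4 U) activating non-active GST-MEK1 and GST-p42 MAPK in MOPS pH 7.2 buffer with ATP/MgCl2, 60 min at 30 °C. Phospho-MAPK captured on anti-GST plates and read with anti-phospho-MAPK and europium-conjugated secondary antibody. Single-point % inhibition at […]; IC50 over 10 µM–1 nM half-log dilutions.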

[2] = molecular target: T2, recombinant human MEK 1 (MAPKK) / human ERK2 (MAPK) (Homo sapiens, UniProt P28482+Q02750); experiment: Mitogen Activated Protein Kinase (MAPK) test procedure (Mek-Erk coupled); type: biochemical; settings: MEK1-activated ERK2, 33P ATP, peptide substrate
T2 construct: GST; made in house
Procedure: Mitogen Activated Protein Kinase (MAPK) Test Procedure
To evaluate inhibitors of the MAP (mitogen activated protein) kinase a two component coupled standard pharmacological test procedure, which measures phosphorylation of a serine/threonine residue in an appropriate sequence in the substrate in the presence and absence of a putative inhibitor, is used. Recombinant human MEK 1 (MAPKK) is first used to activate recombinant human ERK2 (MAPK) and the activated MAPK (ERK) is incubated with substrate (myelin basic protein peptide (MBPP) or Myc peptide) in the presence of ATP, Mg^+2 and radiolabeled ^33P ATP. The phosphorylated peptide is captured on a P 81 phosphocellulose filter (paper filter or embedded in microtiter plate) ished and counted by scintillation methods.
The peptide substrates used in the assay are MBPP, peptide substrate (APRTPGGRR), or synthetic Myc substrate, (KKFELLPTPPLSPSRR•5 TFA). […]
The reaction is run as follows in 50 mM Tris kinase buffer, pH 7.4 in a reaction volume of 50 ul. […] The filters are briefly air dried before addition of scintillant and samples are counted in the appropriate scintillation counter set up for reading ^33P isotope. […]
The raw data is captured as counts per minute (cpm). […] Mean cpm data is tabulated by group and % inhibition by a test compound is calculated as (corrected cpm control−corrected·cpm sample/control)×100=% inhibition). […]

T1 sequence (P04049 whole entry): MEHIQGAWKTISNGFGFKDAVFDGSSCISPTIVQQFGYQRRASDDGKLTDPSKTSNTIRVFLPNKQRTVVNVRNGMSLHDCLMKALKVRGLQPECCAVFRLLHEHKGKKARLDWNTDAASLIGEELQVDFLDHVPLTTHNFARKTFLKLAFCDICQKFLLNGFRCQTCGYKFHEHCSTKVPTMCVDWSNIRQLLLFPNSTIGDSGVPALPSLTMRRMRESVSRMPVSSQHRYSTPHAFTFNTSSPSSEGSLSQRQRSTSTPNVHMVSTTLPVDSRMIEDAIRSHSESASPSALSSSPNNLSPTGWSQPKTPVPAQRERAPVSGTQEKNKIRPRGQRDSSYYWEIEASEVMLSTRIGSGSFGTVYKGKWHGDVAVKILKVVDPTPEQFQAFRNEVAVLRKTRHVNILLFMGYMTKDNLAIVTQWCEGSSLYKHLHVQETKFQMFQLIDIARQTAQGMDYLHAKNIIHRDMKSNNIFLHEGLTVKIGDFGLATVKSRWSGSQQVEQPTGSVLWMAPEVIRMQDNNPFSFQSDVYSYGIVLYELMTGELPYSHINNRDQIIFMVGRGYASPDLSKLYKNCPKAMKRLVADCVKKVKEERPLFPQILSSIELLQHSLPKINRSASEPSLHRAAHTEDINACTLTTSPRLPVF
T1 sequence (Q02750 whole entry): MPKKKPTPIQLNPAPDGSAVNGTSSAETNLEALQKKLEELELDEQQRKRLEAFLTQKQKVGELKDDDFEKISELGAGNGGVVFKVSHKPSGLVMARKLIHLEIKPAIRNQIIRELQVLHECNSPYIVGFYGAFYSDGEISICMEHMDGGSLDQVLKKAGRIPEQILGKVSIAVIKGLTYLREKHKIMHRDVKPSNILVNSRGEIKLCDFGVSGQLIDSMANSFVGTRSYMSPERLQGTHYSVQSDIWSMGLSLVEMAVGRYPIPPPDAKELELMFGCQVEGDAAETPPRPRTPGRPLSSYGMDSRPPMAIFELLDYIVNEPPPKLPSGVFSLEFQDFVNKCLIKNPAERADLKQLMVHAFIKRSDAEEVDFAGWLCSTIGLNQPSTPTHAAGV
T2 sequence (P28482 whole entry): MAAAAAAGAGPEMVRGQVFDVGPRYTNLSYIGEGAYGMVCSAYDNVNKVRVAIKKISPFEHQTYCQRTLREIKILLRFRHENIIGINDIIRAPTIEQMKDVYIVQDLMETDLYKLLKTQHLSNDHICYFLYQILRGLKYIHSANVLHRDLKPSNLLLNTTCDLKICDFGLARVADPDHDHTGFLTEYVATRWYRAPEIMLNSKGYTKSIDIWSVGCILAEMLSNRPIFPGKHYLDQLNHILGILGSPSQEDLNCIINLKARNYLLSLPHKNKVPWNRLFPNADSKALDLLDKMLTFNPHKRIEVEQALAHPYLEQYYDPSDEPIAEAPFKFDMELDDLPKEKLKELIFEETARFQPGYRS
T2 sequence (Q02750 whole entry): as the sequence (Q02750 whole entry) above

IC50 [1]: 20 nM
melting point: 141 °C (dec.)
IC50 [2]: 45 nM
SMILES: COc1cc2c(Nc3ccc(Oc4ccccc4)cc3)c(C#N)cnc2cc1OCCN1CCC(N2CCCCC2)CC1 [Example 32, 7-(2-[1,4′]Bipiperidinyl-1′-yl-ethoxy)-6-methoxy-4-(4-phenoxy-phenylamino)-quinoline-3-carbonitrile]
